According to patent EP3789378A1, “PIPERIDINES OR PIPERIDONES SUBSTITUTED WITH UREA AND HETEROARYL” (Grünenthal GmbH, priority 2019, dated 2021):

These compounds were tested against T1, h FPR2 (Homo sapiens, UniProt P25090) (assay: Agonistic activity in hFPR2-Aq-CHO cells (FLIPR Calcium 5 fluorescence assay)). Settings: 11 point half log dilution, final assay concentration from 10µM.
T1 construct: expressed in transfected cells
T1 sequence (P25090 1-351): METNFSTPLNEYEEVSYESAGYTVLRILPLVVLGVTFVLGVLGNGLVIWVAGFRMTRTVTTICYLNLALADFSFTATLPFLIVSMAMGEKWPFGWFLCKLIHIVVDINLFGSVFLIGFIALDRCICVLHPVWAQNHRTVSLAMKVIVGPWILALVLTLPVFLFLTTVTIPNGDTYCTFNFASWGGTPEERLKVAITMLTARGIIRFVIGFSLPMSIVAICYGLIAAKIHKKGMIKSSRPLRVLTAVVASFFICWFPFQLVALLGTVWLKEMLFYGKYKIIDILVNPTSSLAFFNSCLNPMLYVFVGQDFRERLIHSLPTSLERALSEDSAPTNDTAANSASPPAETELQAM
Type: cell-based
Method in brief: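 hFPR2-Aq-CHO cells were loaded with Calcium 5 dye for 30 min at 37 °C and equilibrated 10 min at room temperature. Compound (11 points, 10 µM to 100 pM final) was added in HBSS/HEPES/probenecid buffer pH 7.4. Fluorescence rise over basal across 5 min, relative to no-compound wells, gave EC50.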

Row | EC50 [nM] | Structure (SMILES)
1 | 11 | COc1ccc([C@@H]2CN(C(=O)C3CNC3)CC[C@H]2NC(=O)Nc2ccccc2)nc1 (racemic) [Ex-165, trans-1-[1-(Azetidine-3-carbonyl)-3-(5-methoxy-pyridin-2-yl)-piperidin-4-yl]-3-phenyl-urea]
2 | 72 | Cc1cc(NC(=O)N[C@@H]2CCN(Cc3cc(C)on3)C[C@H]2c2ccc(Cl)s2)sn1 (single isomer, unassigned) [Ex-48, trans-1-[3-(5-chlorothiophen-2-yl)-1-[(5-methyl-1,2-oxazol-3-yl)methyl]piperidin-4-yl]-3-(3-methyl-1,2-thiazol-5-yl)urea]
3 | 1 | COc1ccc([C@@H]2CN(c3ccncn3)CC[C@H]2NC(=O)Nc2cc(C)ns2)nc1 (relative stereo) [Ex-8, trans-1-(5-methoxy-1'-pyrimidin-4-yl-1',2',3',4',5',6'-hexahydro-[2,3']bipyridinyl-4'-yl)-3-(3-methyl-isothiazol-5-yl)-urea]
4 | 2 | COc1ccc([C@H]2CN(CC(=O)N(C)C)CC[C@@H]2NC(=O)Nc2ccc(Cl)cc2)nc1 [Ex-216]
5 | 0.3 | COc1cnc([C@@H]2CN(CC(N)=O)CC[C@H]2NC(=O)Nc2ccc(Cl)cc2)c(F)c1 (relative stereo) [Ex-222, trans-2-{4'-[3-(4-chlorophenyl)-ureido]-3-fluoro-5-methoxy-3',4',5',6'-tetrahydro-2'H-[2,3']bipyridinyl-1'-yl}-acetamide]
6 | 17 | Cc1cc(NC(=O)N[C@@H]2CCN(c3ccnc(C(F)(F)F)n3)C[C@H]2c2ccc(Cl)cn2)sn1 (relative stereo) [Ex-28, trans-1-[5-chloro-1'-(2-trifluoromethyl-pyrimidin-4-yl)-1',2',3',4',5',6'-hexahydro-[2,3']bipyridinyl-4'-yl]-3-(3-methyl-isothiazol-5-yl)-urea]
7 | 0.8 | COc1ccc([C@@H]2CN(CC3(O)CC3)CC[C@H]2NC(=O)Nc2ccc(Cl)cc2)nc1 (relative stereo) [Ex-163, trans-1-(4-Chlorophenyl)-3-[1-[(1-hydroxy-cyclopropyl)-methyl]-3-(5-methoxy-pyridin-2-yl)-piperidin-4-yl]-urea]
8 | 35 | COc1ccc([C@@H]2CN(C(=O)C3CCNCC3)CC[C@H]2NC(=O)Nc2ccccc2)nc1 (relative stereo) [Ex-151, trans-1-[3-(5-Methoxy-pyridin-2-yl)-1-(piperidine-4-carbonyl)-piperidin-4-yl]-3-phenyl-urea]
9 | 7 | COc1ccc([C@@H]2CN(C(=O)C3CC(O)C3)CC[C@H]2NC(=O)Nc2cc(C)ns2)nc1 (single isomer, unassigned) [Ex-138, trans-1-[1-(3-Hydroxy-cyclobutanecarbonyl)-3-(5-methoxy-pyridin-2-yl)-piperidin-4-yl]-3-(3-methyl-isothiazol-5-yl)-urea]
10 | 28 | COc1ccc([C@@H]2CN(CC3COC3)CC[C@H]2NC(=O)Nc2ccccc2)nc1 (relative stereo) [Ex-161, trans-1-[3-(5-Methoxy-pyridin-2-yl)-1-(oxetan-3-yl-methyl)-piperidin-4-yl]-3-phenyl-urea]
11 | 0.5 | COc1ccc([C@@H]2CN(CC3CCC(OC)CC3)CC[C@H]2NC(=O)Nc2ccc(Cl)cc2)nc1 (relative stereo) [Ex-115, trans-1-(4-chloro-phenyl)-3-[5-methoxy-1'-(4-methoxy-cyclohexylmethyl)-1',2',3',4',5',6'-hexahydro-[2,3']bipyridinyl-4'-yl]-urea]
12 | 2 | COc1ccc([C@@H]2CN(CC3(O)CC3)CC[C@H]2NC(=O)Nc2cc(C)ns2)nc1 (relative stereo) [Ex-182, trans-1-[1'-(1-hydroxy-cyclopropylmethyl)-5-methoxy-1',2',3',4',5',6'-hexahydro-[2,3']bipyridinyl-4'-yl]-3-(3-methyl-isothiazol-5-yl)-urea]
13 | 6 | CN1CCC(C(=O)N2CC[C@@H](NC(=O)Nc3ccc(Cl)cc3)[C@H](c3ccc(Cl)s3)C2)CC1 (relative stereo) [Ex-104, trans-1-(4-chloro-phenyl)-3-[3-(5-chloro-thiophen-2-yl)-1-(1-methyl-piperidine-4-carbonyl)-piperidin-4-yl]-urea]
14 | 0.6 | COc1ccc([C@@H]2CN(CC3(OC)CC3)CC[C@H]2NC(=O)Nc2ccc(Cl)cc2)nc1 (relative stereo) [Ex-201, trans-1-(4-chloro-phenyl)-3-[5-methoxy-1'-(1-methoxy-cyclopropylmethyl)-1',2',3',4',5',6'-hexahydro-[2,3']bipyridinyl-4'-yl]-urea]
15 | 0.08 | COc1ccc([C@@H]2CN(Cc3ccc(C)nc3)CC[C@H]2NC(=O)Nc2ccc(Cl)cc2)nc1 (relative stereo) [Ex-67, trans-1-(4-chlorophenyl)-3-[-3-(5-methoxypyridin-2-yl)-1-[(6-methylpyridin-3-yl)methyl]piperidin-4-yl]urea]
16 | 3 | COc1ccc([C@@H]2CN(CCS(C)(=O)=O)CC[C@H]2NC(=O)Nc2ccc(Cl)cc2)nc1 (relative stereo) [Ex-93, trans-1-(4-chloro-phenyl)-3-[1'-(2-methanesulfonyl-ethyl)-5-methoxy-1',2',3',4',5',6'-hexahydro-[2,3']bipyridinyl-4'-yl]-urea]
17 | 0.3 | COc1ccc([C@@H]2CN(Cc3cnn(C)c3)CC[C@H]2NC(=O)Nc2ccc(Cl)cc2)nc1 (relative stereo) [Ex-145, trans-1-(4-Chlorophenyl)-3-[3-(5-methoxy-pyridin-2-yl)-1-[(1-methyl-1H-pyrazol-4-yl)-methyl]-piperidin-4-yl]-urea]
18 | 4 | O=C(Nc1ccc(Cl)cc1)N[C@@H]1CCN(Cc2ccc(C3CC3)nc2)C[C@H]1c1ccc(Cl)s1 (relative stereo) [Ex-73, trans-1-(4-chlorophenyl)-3-[3-(5-chlorothiophen-2-yl)-1-[(6-cyclopropylpyridin-3-yl)methyl]piperidin-4-yl]urea]
19 | 3 | COc1ncc(CN2CC[C@@H](NC(=O)Nc3ccc(Cl)cc3)[C@H](c3ccc(Cl)s3)C2)cn1 (relative stereo) [Ex-75, trans-1-(4-chlorophenyl)-3-[3-(5-chlorothiophen-2-yl)-1-[(2-methoxypyrimidin-5-yl)methyl]piperidin-4-yl]urea]
20 | 2 | COc1ccc([C@@H]2CN(CCCO)CC[C@H]2NC(=O)Nc2ccc(Cl)cc2)nc1 (relative stereo) [Ex-103, trans-1-(4-chloro-phenyl)-3-[1'-(3-hydroxy-propyl)-5-methoxy-1',2',3',4',5',6'-hexahydro-[2,3']bipyridinyl-4'-yl]-urea]
21 | 0.6 | COc1ccc([C@@H]2CN(CC3CCC(O)CC3)CC[C@H]2NC(=O)Nc2ccc(Cl)cc2)nc1 (relative stereo) [Ex-114, trans-1-(4-chloro-phenyl)-3-[1'-(4-hydroxy-cyclohexylmethyl)-5-methoxy-1',2',3',4',5',6'-hexahydro-[2,3']bipyridinyl-4'-yl]-urea]
22 | 1.2 | COc1ccc([C@@H]2CN(CC(C)(C)O)CC[C@H]2NC(=O)Nc2cc(C)ns2)nc1 (relative stereo) [Ex-121, trans-1-[1-(2-Hydroxy-2-methyl-propyl)-3-(5-methoxy-pyridin-2-yl)-piperidin-4-yl]-3-(3-methyl-isothiazol-5-yl)-urea]
23 | 0.9 | COc1cnc([C@@H]2CN(CC3CCC(O)CC3)CC[C@H]2NC(=O)Nc2ccc(Cl)cc2)c(F)c1 (relative stereo) [Ex-221, trans-1-(4-chloro-phenyl)-3-[3-fluoro-1'-(4-hydroxy-cyclohexylmethyl)-5-methoxy-1',2',3',4',5',6'-hexahydro-[2,3']bipyridinyl-4'-yl]-urea]
24 | 5 | Cc1cc(N2CC[C@@H](NC(=O)Nc3cc(C)ns3)[C@H](c3ccc(Cl)cn3)C2)ncn1 (relative stereo) [Ex-31, trans-1-[5-chloro-1'-(6-methyl-pyrimidin-4-yl)-1',2',3',4',5',6'-hexahydro-[2,3']bipyridinyl-4'-yl]-3-(3-methyl-isothiazol-5-yl)-urea]
25 | 50 | COc1ccc([C@@H]2CN(C(=O)c3cnccc3C)CC[C@H]2NC(=O)Nc2ccc(Cl)cc2)nc1 (single isomer, unassigned) [Ex-53, trans-1-(4-chlorophenyl)-3-[3-(5-methoxypyridin-2-yl)-1-[(4-methylpyridin-3-yl)carbonyl]piperidin-4-yl]urea]

Same assay, conditions: agonistic response at 0.1µM

Row | activation at 0.1 µM [%] | Structure (SMILES)
26 | 19 | O=C(Nc1ccccc1)N[C@@H]1CCN(C2CNC2)C[C@H]1c1ccc(Cl)cn1 (relative stereo) [Ex-185, trans-1-(1'-azetidin-3-yl-5-chloro-1',2',3',4',5',6'-hexahydro-[2,3']bipyridinyl-4'-yl)-3-phenyl-urea]
27 | 30 | Cc1cc(NC(=O)N[C@@H]2CCN(c3ccncn3)C[C@H]2c2ccc(Cl)cn2)sn1 (relative stereo) [Ex-17, trans-1-(5-chloro-1'-pyrimidin-4-yl-1',2',3',4',5',6'-hexahydro-[2,3']bipyridinyl-4'-yl)-3-(3-methyl-isothiazol-5-yl)-urea]
28 | 0.2 | COc1ccc([C@@H]2CN(CC(C)(C)O)CC[C@H]2NC(=O)Nc2ccc(Cl)cc2)nc1 (relative stereo) [Ex-178, trans-1-(4-Chlorophenyl)-3-[1-(2-hydroxy-2-methyl-propyl)-3-(5-methoxy-pyridin-2-yl)-piperidin-4-yl]-urea]
29 | 34 | COc1ccc([C@@H]2CN(C3COC3)CC[C@H]2NC(=O)Nc2ccccc2)nc1 (relative stereo) [Ex-162, trans-1-[3-(5-Methoxy-pyridin-2-yl)-1-(oxetan-3-yl)-piperidin-4-yl]-3-phenyl-urea]
